Source: ChEMBL document CHEMBL3785058, “Design and synthesis of novel 3-sulfonylpyrazol-4-amino pyrimidines as potent anaplastic lymphoma kinase (ALK) inhibitors” (Bioorg Med Chem Lett, 2016)

How the values were obtained:
NCI-H2228 = test: Antiproliferative activity against human NCI-H2228 cells after 96 hrs by CellTiter-Glo assay; type: functional, cell-based; conditions: NCI-H2228, 96 h
[1] = Antiproliferative activity against human KARPAS299 cells after 96 hrs by CellTiter-Glo assay; type: functional, cell-based; conditions: KARPAS-299, 96 h
[2] = Ratio of IC50 for human ERG to IC50 for human NCI-H2228 cells
[3] = molecular target: ALK tyrosine kinase receptor (Homo sapiens, UniProt Q9UM73); test: Inhibition of recombinant human wild type ALK using tyrosine kinase substrate-biotin after 30 mins by HTRF assay
Sequence of ALK tyrosine kinase receptor (Homo sapiens, UniProt Q9UM73) (Q9UM73 whole entry): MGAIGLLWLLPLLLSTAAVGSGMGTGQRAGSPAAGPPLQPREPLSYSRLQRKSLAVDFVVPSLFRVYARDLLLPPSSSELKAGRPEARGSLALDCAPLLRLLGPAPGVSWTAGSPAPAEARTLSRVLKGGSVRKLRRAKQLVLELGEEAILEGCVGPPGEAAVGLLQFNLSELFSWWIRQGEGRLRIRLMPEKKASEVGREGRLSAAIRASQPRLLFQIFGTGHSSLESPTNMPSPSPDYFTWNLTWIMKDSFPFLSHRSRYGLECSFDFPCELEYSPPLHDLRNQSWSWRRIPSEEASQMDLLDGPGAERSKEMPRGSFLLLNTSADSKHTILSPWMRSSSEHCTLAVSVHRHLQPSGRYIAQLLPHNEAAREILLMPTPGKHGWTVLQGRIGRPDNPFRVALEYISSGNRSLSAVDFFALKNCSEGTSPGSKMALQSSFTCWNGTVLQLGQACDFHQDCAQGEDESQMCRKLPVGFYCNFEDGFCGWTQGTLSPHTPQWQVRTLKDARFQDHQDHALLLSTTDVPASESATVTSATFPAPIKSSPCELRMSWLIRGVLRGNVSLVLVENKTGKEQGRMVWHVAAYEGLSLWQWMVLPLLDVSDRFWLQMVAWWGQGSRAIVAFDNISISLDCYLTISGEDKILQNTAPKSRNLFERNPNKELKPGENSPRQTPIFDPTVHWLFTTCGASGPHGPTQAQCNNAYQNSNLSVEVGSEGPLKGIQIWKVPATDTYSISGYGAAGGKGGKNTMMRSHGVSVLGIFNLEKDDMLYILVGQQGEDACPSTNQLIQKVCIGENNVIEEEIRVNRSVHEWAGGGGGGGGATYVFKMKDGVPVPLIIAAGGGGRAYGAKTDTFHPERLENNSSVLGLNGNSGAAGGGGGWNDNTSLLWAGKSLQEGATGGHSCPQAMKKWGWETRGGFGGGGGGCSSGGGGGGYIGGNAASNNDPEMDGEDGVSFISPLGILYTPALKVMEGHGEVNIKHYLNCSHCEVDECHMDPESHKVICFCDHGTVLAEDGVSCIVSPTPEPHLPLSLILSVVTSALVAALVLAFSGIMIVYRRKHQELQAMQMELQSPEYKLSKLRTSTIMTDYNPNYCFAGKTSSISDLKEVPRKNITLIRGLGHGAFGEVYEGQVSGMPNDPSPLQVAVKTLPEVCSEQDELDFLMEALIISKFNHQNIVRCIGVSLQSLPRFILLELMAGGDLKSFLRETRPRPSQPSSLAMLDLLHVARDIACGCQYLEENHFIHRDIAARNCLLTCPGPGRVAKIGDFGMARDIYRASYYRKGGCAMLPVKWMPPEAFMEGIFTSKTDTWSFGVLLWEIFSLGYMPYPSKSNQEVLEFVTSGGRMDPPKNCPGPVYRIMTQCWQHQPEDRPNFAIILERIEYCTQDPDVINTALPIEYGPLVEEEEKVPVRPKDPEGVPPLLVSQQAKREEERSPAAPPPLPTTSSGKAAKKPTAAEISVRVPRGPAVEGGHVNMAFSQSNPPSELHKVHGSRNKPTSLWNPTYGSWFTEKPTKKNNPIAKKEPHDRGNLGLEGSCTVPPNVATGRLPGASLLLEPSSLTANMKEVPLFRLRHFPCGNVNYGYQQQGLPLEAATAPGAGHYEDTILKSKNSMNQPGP

[4] = molecular target: ALK tyrosine kinase receptor (Homo sapiens, UniProt Q9UM73, L1196M); test: Inhibition of recombinant human ALK L1196M mutant using tyrosine kinase substrate-biotin after 30 mins by HTRF assay
Sequence of ALK tyrosine kinase receptor (Homo sapiens, UniProt Q9UM73, L1196M) (Q9UM73 19-1620 L1196M limits assumed): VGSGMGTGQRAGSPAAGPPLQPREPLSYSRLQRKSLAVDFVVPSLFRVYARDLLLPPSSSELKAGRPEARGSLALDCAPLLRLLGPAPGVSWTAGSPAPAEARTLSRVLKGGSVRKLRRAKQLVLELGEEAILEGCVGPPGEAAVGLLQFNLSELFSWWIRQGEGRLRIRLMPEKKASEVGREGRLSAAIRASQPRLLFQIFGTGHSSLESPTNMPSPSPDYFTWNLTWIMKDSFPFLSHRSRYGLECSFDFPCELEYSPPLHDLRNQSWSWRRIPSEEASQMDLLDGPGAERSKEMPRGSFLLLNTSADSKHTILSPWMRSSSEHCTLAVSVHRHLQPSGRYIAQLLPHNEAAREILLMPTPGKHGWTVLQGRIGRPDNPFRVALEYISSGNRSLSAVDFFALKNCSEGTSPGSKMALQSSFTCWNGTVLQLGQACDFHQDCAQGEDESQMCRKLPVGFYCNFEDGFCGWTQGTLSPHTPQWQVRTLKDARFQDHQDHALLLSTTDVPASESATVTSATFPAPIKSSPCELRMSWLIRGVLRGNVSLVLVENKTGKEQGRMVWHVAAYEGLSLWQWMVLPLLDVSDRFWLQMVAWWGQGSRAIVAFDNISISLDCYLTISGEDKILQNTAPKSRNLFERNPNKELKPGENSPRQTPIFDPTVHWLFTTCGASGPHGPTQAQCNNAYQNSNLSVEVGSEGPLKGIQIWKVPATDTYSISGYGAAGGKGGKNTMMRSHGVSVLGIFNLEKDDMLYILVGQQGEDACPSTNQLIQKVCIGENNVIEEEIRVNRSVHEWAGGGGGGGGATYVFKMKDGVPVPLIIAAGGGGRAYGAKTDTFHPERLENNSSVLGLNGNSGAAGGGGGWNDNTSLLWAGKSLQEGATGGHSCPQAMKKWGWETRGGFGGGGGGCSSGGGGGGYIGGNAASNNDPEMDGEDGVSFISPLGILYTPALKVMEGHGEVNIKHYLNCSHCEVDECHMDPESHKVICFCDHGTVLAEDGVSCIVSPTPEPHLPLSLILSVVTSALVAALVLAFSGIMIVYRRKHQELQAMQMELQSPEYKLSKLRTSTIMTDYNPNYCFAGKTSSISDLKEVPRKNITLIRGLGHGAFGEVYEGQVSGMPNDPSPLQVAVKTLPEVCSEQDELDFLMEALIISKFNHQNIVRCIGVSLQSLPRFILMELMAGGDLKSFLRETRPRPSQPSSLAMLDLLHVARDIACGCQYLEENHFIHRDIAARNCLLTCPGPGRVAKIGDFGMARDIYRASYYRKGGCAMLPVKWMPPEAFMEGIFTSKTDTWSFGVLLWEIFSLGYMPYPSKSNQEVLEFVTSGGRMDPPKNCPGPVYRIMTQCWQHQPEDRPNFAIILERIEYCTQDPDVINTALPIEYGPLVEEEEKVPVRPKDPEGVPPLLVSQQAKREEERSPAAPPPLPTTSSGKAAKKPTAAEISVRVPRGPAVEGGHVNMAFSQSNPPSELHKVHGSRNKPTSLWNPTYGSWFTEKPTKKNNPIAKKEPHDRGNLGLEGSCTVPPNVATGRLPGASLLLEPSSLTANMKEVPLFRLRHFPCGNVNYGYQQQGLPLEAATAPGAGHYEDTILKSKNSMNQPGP

Row | IC50 (NCI-H2228) | IC50 [3] | IC50 [4] | SMILES | IC50 [1] | Ratio IC50 [2]
1 | 87 nM | – | – | Cc1cc(Nc2ncc(C#N)c(Nc3cn(C)nc3S(=O)(=O)C(C)C)n2)c(OC2CC2)cc1C1CCN(C)CC1 | – | –
2 | 141 nM | – | – | Cc1cc(Nc2ncc(Cl)c(Nc3cn(C)nc3S(=O)(=O)C(C)C)n2)c(OC2CC2)cc1C1CCC(N2CCN(C)CC2)CC1 (mixture of isomers) | – | 6
3 | 39 nM | 1 nM | – | Cc1cc(Nc2ncc(Cl)c(Nc3cn(C)nc3S(=O)(=O)C(C)C)n2)c(OC2CC2)cc1C1CCN(C)CC1 | – | –
4 | 151 nM | 16 nM | 20 nM | Cc1cc(Nc2ncc(Cl)c(Nc3cn(C)nc3S(=O)(=O)C(C)C)n2)c(OC2CC2)cc1[C@H]1CC[C@H](NS(C)(=O)=O)CC1 | 18 nM | –
5 | 81 nM | – | – | Cc1cc(Nc2ncc(F)c(Nc3cn(C)nc3S(=O)(=O)C(C)C)n2)c(OC2CC2)cc1C1CCN(C)CC1 | – | –
6 | 116 nM | 8 nM | 20 nM | Cc1cc(Nc2ncc(Cl)c(Nc3cn(C)nc3S(=O)(=O)C(C)C)n2)c(OC2CC2)cc1[C@H]1CC[C@@H](NC2CC2)CC1 | – | 15
7 | 174 nM | – | – | Cc1cc(Nc2ncc(Cl)c(Nc3cn(C)nc3S(=O)(=O)C(C)C)n2)c(OC2CC2)cc1C1CCOCC1 | 18 nM | 21

Second part, the molecule before the results:

Row | SMILES | IC50 (NCI-H2228) | IC50 [3] | IC50 [4] | IC50 [1] | Ratio IC50 [2]
8 | Cc1cc(Nc2ncc(Cl)c(Nc3cn(C4CC4)nc3S(=O)(=O)C(C)C)n2)c(OC(C)C)cc1C1CCNCC1 | 248 nM | – | – | 37 nM | –
9 | Cc1nc(S(=O)(=O)C(C)C)c(Nc2nc(Nc3cc(C)c(C4CCN(C)CC4)cc3OC3CC3)ncc2Cl)s1 | 150 nM | – | – | – | –
10 | CCC(C)S(=O)(=O)c1nn(C)cc1Nc1nc(Nc2cc(C)c(C3CCNCC3)cc2OC(C)C)ncc1Cl (configuration not stated) | 224 nM | – | – | 21 nM | –
11 | Cc1cc(Nc2ncc(Cl)c(Nc3cn(C)nc3S(=O)(=O)CC(C)C)n2)c(OC(C)C)cc1C1CCNCC1 | 193 nM | – | – | 24 nM | –
12 | CNC(=O)c1nn(C)cc1Nc1nc(Nc2cc(C)c(C3CCN(C)CC3)cc2OC2CC2)ncc1Cl | 661 nM | 12 nM | 24 nM | – | –
13 | Cc1cc(Nc2ncc(Cl)c(Nc3cn(C)nc3S(=O)(=O)C3CC3)n2)c(OC(C)C)cc1C1CCNCC1 | > 10000 nM | 400 nM | > 10000 nM | > 10000 nM | –
14 | Cc1cc(Nc2ncnc(Nc3cn(C)nc3S(=O)(=O)C(C)C)n2)c(OC2CC2)cc1C1CCN(C)CC1 | – | 36 nM | 111 nM | – | –
15 | Cc1cc(Nc2ncc(Cl)c(Nc3cn(C)nc3S(C)(=O)=O)n2)c(OC(C)C)cc1C1CCNCC1 | – | 56 nM | 94 nM | 288 nM | –
16 | Cc1cc(Nc2ncc(Cl)c(Nc3c[nH]nc3S(=O)(=O)C(C)C)n2)c(OC(C)C)cc1C1CCNCC1 | – | 22 nM | 28 nM | 1250 nM | –
17 | Cc1nc(Nc2nc(Nc3cc(C)c(C4CCN(C)CC4)cc3OC3CC3)ncc2Cl)c(S(=O)(=O)C(C)C)s1 | 490 nM | 3 nM | 19 nM | – | –
